Source: patent US6046186A, “Estrone sulfamate inhibitors of estrone sulfatase, and associated pharmaceutical compositions and methods of use” (SRI International, priority 1997, dated 2000)
Like-named read-outs stand apart in the source and are kept apart here.

Legend:
[1] = test system: uterus; experiment: Uterotrophic assay (estrogenic activity from uterine weights); assay type: in vivo, Sprague Dawley rats; set-up: scale not given here; conditions: female rats, test compound alone once daily for 7 days, s.c. or oral gavage; uterine weight vs vehicle control
Description: B. Uterotrophic and antiuterotrophic assays
Sprague Dawley rates are obtained from Simmonsen Laboratories, Gilroy, Calif. Estradiol benzoate may be purchased from Sigma Chemical Co., St. Louis, Mo.
The procedure of Wakeling et al., Endocrinology 99:447453 (1983) is followed. Female Sprague Dawley rats weighing 40-50 grams are used for the experiment. In general, animals are quarantined for 3 days after arrival at the experimental site.
Rats are initially weighed and randomly divided into groups with 5 animals in each group. For the uterotrophic assay, animals are dosed once daily with various doses of test compounds in 0.1 or 1.0 ml of sterile saline via subcutaneous injection or oral gavage, respectively. For the antiuterotrophic assay, animals are dosed once daily with the same doses indicated above plus 0.5 μg/rat of estradiol benzoate alone.
The animals are treated for 7 days. On day 8, animals are weighed and then sacrificed. The uterus of each animal is removed immediately after death and weighed; fat materials are trimmed off prior to weighing.
A comparison of uterine weights from the groups receiving test compound alone with those of the vehicle control group gives the estrogenic activity. Antiestrogenic activity is obtained by comparing the uterine weights from the groups receiving test compound plus estradiol with those of the estradiol control group.

[2] = molecular target: T1, Estrone Sulfatase (Homo sapiens, UniProt P08842); experiment: Effects of Inhibitors on Estrone Sulfatase Activity in MCF-7 Cells; assay type: cell-based
T1 construct: endogenous in cells; host or cells: MCF-7 human breast cancer cells (American Type Culture Collection)
T1 sequence (P08842 22-583): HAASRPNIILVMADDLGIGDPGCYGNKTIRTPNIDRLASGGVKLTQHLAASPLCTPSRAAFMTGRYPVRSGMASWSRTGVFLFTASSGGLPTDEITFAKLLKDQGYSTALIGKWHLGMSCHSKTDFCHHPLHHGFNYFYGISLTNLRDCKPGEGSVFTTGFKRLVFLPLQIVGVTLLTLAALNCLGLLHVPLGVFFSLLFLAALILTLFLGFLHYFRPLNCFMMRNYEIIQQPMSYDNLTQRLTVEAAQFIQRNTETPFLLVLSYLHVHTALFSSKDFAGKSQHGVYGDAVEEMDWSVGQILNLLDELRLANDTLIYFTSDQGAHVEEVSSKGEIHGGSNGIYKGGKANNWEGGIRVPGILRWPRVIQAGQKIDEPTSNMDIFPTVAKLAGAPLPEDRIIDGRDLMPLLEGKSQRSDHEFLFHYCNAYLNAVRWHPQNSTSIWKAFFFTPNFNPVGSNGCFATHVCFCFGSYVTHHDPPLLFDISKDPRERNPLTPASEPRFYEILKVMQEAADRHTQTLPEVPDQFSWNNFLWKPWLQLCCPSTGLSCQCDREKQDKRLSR
Description: A. Effects of Inhibitors on Estrone Sulfatase Activity in MCF-7 Cells
Reagents: MCF-7 human breast cancer cell line was supplied by the American Type Culture Collection, Rockville, MD. Eagle's minimum essential medium (MEM) and fetal calf serum (FCS) were purchased from Sigma Chemical Company, St. Louis, Mo. [4-^14 C]Estrone, [6,7-^3 H]estradiol and [6,7-^3 H](N)estrone sulfate were obtained from New England Nuclear Research Products, Boston, Mass.
Procedure: The method of Duncan et al., Cancer Res. 53:298-303 (1993) was employed. MCF-7 cells were seeded in 60 mm×15 mm culture dishes at 1×10^5 cells/dish and maintained in 4.0 ml of MEM containing 2 mM glutamine and 5% FCS. The cells were incubated at 37° C. in an atmosphere of 5% CO2 /95% air and 100% humidity, with the medium changed every third day. When the cells reached 80% confluency, the intact monolayers were washed once with Earl's balanced salt solution and incubated in 4.0 ml of serum and phenol re-free MEM containing either the substrate (^3 H-estrone sulfate, 7 pmol, 9×10^5 dpm) and inhibitor dissolved in ethanol, or ethanol alone. The fmal ethanol concentration was always below 1%. The incubation continued under the regular conditions for 24 h. At the end of 24 h, 2.0 ml of medium was transferred into separate tubes containing 7×10^3 dpm of ^14 C-estrone. The mixture was vortexed vigorously for 60 s with 5 ml of toluene. After phase separation, 2.0 ml of the organic phase was transferred into a counting vial for scintillation counting. The amount of estrone sulfate hydrolyzed was calculated on the basis of ^3 H counts obtained, with the added ^14 C-estrone counts used to correct for recovery through the extraction procedure.
The cells remaining in each culture dish were washed once with saline and then scraped with 1.0 ml of 0.5 N NaOH into 10×75 mm tubes. The cell pellets in each tube was incubated at 50° C. for 20 min to ensure that digestion was complete and all proteins had became soluble. An aliquot was then taken for protein determination by Lowry's method (Lowry et al., J. Biol. Chem. 193:265-275 (1951)).
The percentage of inhibition was determined by evaluating the quantity of estrone sulfate hydrolyzed with the inhibitor relative to that without the inhibitor.
As a general practice, all available inhibitors were first tested at 100 μM; the ones showing inhibitory effects at that concentration were tested again at various concentrations to obtain the IC50 values.

[3] = intact MCF-7 human breast cancer cells, 3H-estrone sulfate substrate, 24 h, 37° C., read-out: Estrone Sulfatase Inhibitory Activity IC50

Row | SMILES | Estrogenic Activity [1] | IC50 [2, 3] [nM] | IC50 [2] [nM]
1 | C[C@]12CC[C@@H]3c4ccc(OS(N)(=O)=O)c([N+](=O)[O-])c4CC[C@H]3[C@@H]1CCC2=O [Compound 77, 4-Nitroestra-1,3,5(10)-trien-17-one-3-O-sulfamate] | 0 | < 10 | –
2 | C[C@]12CC[C@@H]3c4cc([N+](=O)[O-])c(OS(N)(=O)=O)cc4CC[C@H]3[C@@H]1CCC2=O [Compound 78, 2-Nitroestra-1,3,5(10)-trien-17-one-3-O-sulfamate] | 0 | – | 7
3 | CN(C)c1cc2c(cc1OS(N)(=O)=O)CC[C@@H]1[C@@H]2CC[C@]2(C)C(=O)CC[C@@H]12 [Compound 83, 2-Dimethylaminoestra-1,3,5(10)-trien-17-one-3-O-sulfamate] | 0 | 270 | –
4 | CN(C)c1c(OS(N)(=O)=O)ccc2c1CC[C@@H]1[C@@H]2CC[C@]2(C)C(=O)CC[C@@H]12 [Compound 88, 4-Dimethylaminoestra-1,3,5(10)-trien-17-one-3-O-sulfamate] | 0 | 515 | –
5 | CC(=O)Nc1cc2c(cc1OS(N)(=O)=O)CC[C@@H]1[C@@H]2CC[C@]2(C)C(=O)CC[C@@H]12 [Compound 93, 2-Acetoamideestra-1,3,5(10)-trien-17-one-3-O-sulfamate] | 0.02 | 410 | –
6 | CC(=O)Nc1c(OS(N)(=O)=O)ccc2c1CC[C@@H]1[C@@H]2CC[C@]2(C)C(=O)CC[C@@H]12 [Compound 96, 4-Acetoamideestra-1,3,5(10)-trien-17-one-3-O-sulfamate] | 0 | 290 | –
7 | CC12CC(=O)C3=Cc4ccc(OS(N)(=O)=O)cc4CCC3C1CCC2=O (stereo not drawn) [Compound 99, β-Homo-9-(10-19)-abeoestra-1,3,5(10),9(19)-tetraen-11,17-dione-3-O-sulfamate] | 0 | 26 | –
